Measured values: US20250302862A1, “SMALL RNA DRUG FOR INHIBITING ACTIVITY OF CANCER CELLS” (Institute of Basic Medical Sciences Chinese Academy of …, priority 2022, published 2025)

Columns and labels:
[1] = test system: cyclooxygenase-2 (COX2); assay: Dual luciferase reporter assay in 293T cells; format: cell-based
Description: The targeting effect of HQi-sRNA-2 obtained from medicinal plants by the inventors on cyclooxygenase-2 (COX2) was studied by a dual luciferase reporter detection system, so as to study its potential to exert lipid-lowering effects.
293T cells were cultured and transfected with the HQi-sRNA-2 to be screened and NC-sRNA, respectively, and then with the dual luciferase reporter plasmid of COX2. The dual luciferase activity was detected after 48 h.

[2] = Body weight of mice with primary lung cancer; format: in vivo, mouse; details: KP mice, 10 nmol daily by gavage for one month, sphingosine(d18:1) delivery system, vs NC group
Source text: The mouse model of primary lung cancer was Kras^LSL-G12Dp53^fl/fl (KP).
Mice were weighed and assigned to the negative control group (NC group) and HQi-sRNA-2 group randomly. The NC group was the negative control, in which a sphingosine(d18:1)-NC-sRNA herbal medicine delivery system was constructed from NC-sRNA. The HQi-sRNA-2 group was the experimental group, in which a sphingosine(d18:1)-HQi-sRNA-2 herbal medicine delivery system was constructed from HQi-sRNA-2.
(§1) The herbal medicine delivery system was constructed by heating and mixing 10 nmol of sRNA, 100 ug of sphingosine(d18:1) and 300 ul of sterile enzyme-free water in a water bath at 90° C. for 15 minutes.
(§2) Each mouse with a uniform body weight was dosed by gavage. Each mouse was given 10 nmol of HQi-sRNA-2 mimic daily by gavage for one month.
The body weight of each mouse was recorded, the curve of body weight over time was plotted, and statistical analysis was performed.

[3] = test system: cyclooxygenase-2 (COX2); assay: COX2 mRNA and protein in lung tissues of mice with lung cancer; format: in vivo, mouse; details: lung tissues of KP mice, 10 nmol daily by gavage for one month
Source text: Methods for animal experiment: the mouse model of primary lung cancer was KrasLSL-G12Dp53fl/fl (KP).
Mice were weighed and assigned to the NC group and HQi-sRNA-2 group randomly. The NC group was the negative control, in which a sphingosine(d18:1)-NC-sRNA herbal medicine delivery system was constructed from NC-sRNA. The HQi-sRNA-2 group was the experimental group, in which a sphingosine(d18:1)-HQi-sRNA-2 herbal medicine delivery system was constructed from HQi-sRNA-2.
as §1, §2
RNA and protein were extracted from the right lung of all mice.
The relative amount of COX-2 mRNA in the RNA in Method 1 and Method 2 was measured by RT-PCR and QPCR technologies.
The relative amount of COX-2 protein in the protein in Method 1 and Method 2 was measured by western blot technology.

[4] = test system: pancreatic cancer PANC-1 cells; assay: Apoptosis detection (Annexin V / PI); format: cell-based, human; details: 100 nmol/L, jetPRIME, 72 h
Description: (§3) 1) PANC-1 cells and BXPC-3 cells with a cell density of more than 90% in 10 cm^2 dishes were plated in 12-well plates according to the cell growth rate, and transfected after 12 h, and the groups were divided as follows: • blank control group (4 wells): 100 uL of jetPRIME Buffer per well • negative control group (NC group) and experimental group (3 wells each): 100 uL of jetPRIME Buffer was mixed well with 3 uL of jetPRIME reagent and 5 uL of small RNA for each well and let stand for 15 min, and then was added to each well at a 100 uL system (final concentration 100 nmol/L) • Note: 100 uL of nuclease-free water was added to 2 nmol of small RNA dry powder for dissolution at a storage concentration of 20 umol/L
(§4) The supernatant and cells were collected after 72 h and washed twice with pre-chilled PBS. The 4 tubes of cells in the blank control group were added respectively with: (1) 200 uL of 1× binding buffer; (2) 200 uL of 1× binding buffer and 5 uL of Annexin V stain; (3) 200 uL of 1× binding buffer and 5 uL of PI stain; (4) 200 uL of 1× binding buffer, 5 uL of Annexin V stain and 5 uL of PI stain. 200 uL of 1× binding buffer, 5 uL of Annexin V stain and 5 uL of PI stain were added to each tube of both the NC group and the experimental group. The mixture was mixed well and filtered through 300 mesh filters. The live cell population and the position of quadrant gate were selected according to the blank control group, and then the apoptosis of the NC group and the experimental group was detected.
as §3, with “mixed” for “mixed well”, “per” for “for each”

[5] = test system: pancreatic cancer BXPC-3 cells; assay: Apoptosis detection (Annexin V / PI); format: cell-based, human; details: 100 nmol/L, jetPRIME, 72 h
Description: as §3, §4
as §3, with “mixed” for “mixed well”, “per” for “for each”

[6] = test system: pancreatic cancer ASPC-1 cells; assay: Cell invasion (Matrigel Transwell); format: cell-based, human; details: 100 nmol/L, jetPRIME, 72 h
Description: 1) Matrigel basement membrane matrix was thawed on crushed ice one night before and diluted with serum-free medium to a final concentration of 200-300 ug/mL. 100 uL of the diluted Matrigel was added to each upper chamber, let stand at 37° C. for 30 min, and the supernatant was aspirated. ASPC-1 cells and BXPC-3 cells with a cell density of more than 90% in 10 cm^2 dishes were digested and resuspended with 1 mL of serum-free medium and counted. 100,000 cells (100 uL) were plated in the upper chamber, and complete medium with 10% FBS was added to the lower chamber of each chamber. Transfection was performed after 12 h, and the groups (3 wells per group) were divided as follows: • blank control group: 10 uL of jetPRIME Buffer • negative control group (NC group) and experimental group: 10 uL of jetPRIME Buffer was mixed well with 0.5 uL of jetPRIME reagent and 0.5 uL of small RNA and let stand for 15 min, and then was added to each well at a 10 uL system (final concentration 100 nmol/L) • Note: 100 uL of nuclease-free water was added to 2 nmol of small RNA dry powder for dissolution at a storage concentration of 20 umol/L
After 72 h, the medium in upper and lower chambers was discarded. The cells were fixed with paraformaldehyde at room temperature for 15 min, stained with 0.1% crystal violet at room temperature for 15 min, and rinsed with PBS. […]

Substance | luciferase activity ([1]; COX2 dual luciferase reporter plasmid, 48 h, compared with NC-sRNA) | luciferase activity ([1]; base sequence of the binding site mutated) | body weight of mice with primary lung cancer [2] | mRNA level of COX2 ([3]; RT-PCR and QPCR) | protein level of COX2 ([3]; western blot) | apoptosis [4] | apoptosis [5] | cell invasion [6]
HQi-sRNA-2: small RNA derived from Scutellaria baicalensis, sequence AUGGUUCGAUUCCGGAGAGGG (listed as RNA, chemistry not given here) | significantly reduce | restored | significantly maintained | significantly down-regulate | significantly down-regulate |  |  | 
MDM-sRNA-39: small RNA derived from Maytenus hookeri, sequence GGGAUUGUAGUUCAAUUGGUCAGAGCACC (listed as RNA, chemistry not given here) |  |  |  |  |  | promotes | promotes | inhibits
MDM-sRNA-163: small RNA derived from Maytenus hookeri, sequence UGACUCUAGUCCGACUUUGUGAAAUGACU (listed as RNA, chemistry not given here) |  |  |  |  |  | promotes | promotes | 
